Reference: the supplement of paper PMC4862054

Test system: MCF-10A
Assay: drug sensitivity score (DSS), CellTox Green (DSS (AUC-based score)); higher = stronger drug effect (viability inhibition or cytotoxicity); extreme values may be limits of the assay
Conditions: incubation time: 72 h
Summary of the method: (§1)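 Plates with 384 wells held compound at 5 concentrations in 10-fold steps over a 10,000-fold range specific to each compound. Breast cancer cell lines were added in 20 µl suspension and incubated 72 h, then read for CellTox Green and CellTiter-Glo signals, with each plate normalised to 0.1 % DMSO and a positive kill control. The drug sensitivity score is based on the area under the fitted dose-response curve.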

Row | SMILES | drug sensitivity score
1 | NC(=O)c1cccc2cn(-c3ccc([C@@H]4CCCNC4)cc3)nc12 [MK-4827] | 0
2 | N[C@@H](Cc1ccc(N(CCCl)CCCl)cc1)C(=O)O [Melphalan] | 19.3
3 | O=C(c1cc(Cc2n[nH]c(=O)c3ccccc23)ccc1F)N1CCN(C(=O)C2CC2)CC1 [Olaparib] | 0

Test system: MDA-MB-436
Assay: as above
Conditions: incubation time: 72 h
Summary of the method: as §1

Row | SMILES | drug sensitivity score
4 | Cc1cc2c(F)c(Oc3ncnn4cc(OC[C@@H](C)O)c(C)c34)ccc2[nH]1 [Brivanib] | 2.68
5 | CC(C)C[C@H](NC(=O)[C@H](CCc1ccccc1)NC(=O)CN1CCOCC1)C(=O)N[C@@H](Cc1ccccc1)C(=O)N[C@@H](CC(C)C)C(=O)[C@@]1(C)CO1 [Carfilzomib] | 19.2
6 | Nc1nc(Cl)nc2c1ncn2[C@@H]1O[C@H](CO)[C@@H](O)[C@@H]1F [Clofarabine] | 0
7 | C[C@@H]1C[C@H]2[C@@H]3CCC4=CC(=O)C=C[C@]4(C)[C@@]3(F)[C@@H](O)C[C@]2(C)[C@@]1(O)C(=O)CO [Dexamethasone] | 0
8 | CC(C)C(=O)Nc1ccc([N+](=O)[O-])c(C(F)(F)F)c1 [Flutamide] | 0
9 | COc1cc2c(Oc3ccc(NC(=O)C4(C(=O)Nc5ccc(F)cc5)CC4)cc3F)ccnc2cc1OCCCN1CCOCC1 [Foretinib] | 0
10 | O=NN(CCCl)C(=O)NC1CCCCC1 [Lomustine] | 0
11 | O=C(O)CC[C@H]1CC[C@@](c2cc(F)ccc2F)(S(=O)(=O)c2ccc(Cl)cc2)CC1 [MK-0752] | 0
12 | NC1(c2ccc(-c3nc4ccn5c(=O)[nH]nc5c4cc3-c3ccccc3)cc2)CCC1 [MK-2206] | 0
13 | NC(=O)c1cccc2cn(-c3ccc([C@@H]4CCCNC4)cc3)nc12 [MK-4827] | 0
14 | N[C@@H](Cc1ccc(N(CCCl)CCCl)cc1)C(=O)O [Melphalan] | 8.42
15 | O=C(c1cc(Cc2n[nH]c(=O)c3ccccc23)ccc1F)N1CCN(C(=O)C2CC2)CC1 [Olaparib] | 8.45

Test system: MDA-MB-468
Assay: as above
Conditions: incubation time: 72 h
Summary of the method: as §1

Row | SMILES | drug sensitivity score
16 | Cc1cc2c(F)c(Oc3ncnn4cc(OC[C@@H](C)O)c(C)c34)ccc2[nH]1 [Brivanib] | 0
17 | CC(C)C[C@H](NC(=O)[C@H](CCc1ccccc1)NC(=O)CN1CCOCC1)C(=O)N[C@@H](Cc1ccccc1)C(=O)N[C@@H](CC(C)C)C(=O)[C@@]1(C)CO1 [Carfilzomib] | 37.2
18 | Nc1nc(Cl)nc2c1ncn2[C@@H]1O[C@H](CO)[C@@H](O)[C@@H]1F [Clofarabine] | 0.395
19 | C[C@@H]1C[C@H]2[C@@H]3CCC4=CC(=O)C=C[C@]4(C)[C@@]3(F)[C@@H](O)C[C@]2(C)[C@@]1(O)C(=O)CO [Dexamethasone] | 0
20 | CC(C)C(=O)Nc1ccc([N+](=O)[O-])c(C(F)(F)F)c1 [Flutamide] | 0
21 | COc1cc2c(Oc3ccc(NC(=O)C4(C(=O)Nc5ccc(F)cc5)CC4)cc3F)ccnc2cc1OCCCN1CCOCC1 [Foretinib] | 3.1
22 | O=NN(CCCl)C(=O)NC1CCCCC1 [Lomustine] | 0
23 | O=C(O)CC[C@H]1CC[C@@](c2cc(F)ccc2F)(S(=O)(=O)c2ccc(Cl)cc2)CC1 [MK-0752] | 0
24 | NC1(c2ccc(-c3nc4ccn5c(=O)[nH]nc5c4cc3-c3ccccc3)cc2)CCC1 [MK-2206] | 0
25 | NC(=O)c1cccc2cn(-c3ccc([C@@H]4CCCNC4)cc3)nc12 [MK-4827] | 0
26 | N[C@@H](Cc1ccc(N(CCCl)CCCl)cc1)C(=O)O [Melphalan] | 19.7
27 | O=C(c1cc(Cc2n[nH]c(=O)c3ccccc23)ccc1F)N1CCN(C(=O)C2CC2)CC1 [Olaparib] | 0

Test system: MFM-223
Assay: as above
Conditions: incubation time: 72 h
Summary of the method: as §1

Row | SMILES | drug sensitivity score
28 | Cc1cc2c(F)c(Oc3ncnn4cc(OC[C@@H](C)O)c(C)c34)ccc2[nH]1 [Brivanib] | 0
29 | CC(C)C[C@H](NC(=O)[C@H](CCc1ccccc1)NC(=O)CN1CCOCC1)C(=O)N[C@@H](Cc1ccccc1)C(=O)N[C@@H](CC(C)C)C(=O)[C@@]1(C)CO1 [Carfilzomib] | 14.4
30 | Nc1nc(Cl)nc2c1ncn2[C@@H]1O[C@H](CO)[C@@H](O)[C@@H]1F [Clofarabine] | 0
31 | C[C@@H]1C[C@H]2[C@@H]3CCC4=CC(=O)C=C[C@]4(C)[C@@]3(F)[C@@H](O)C[C@]2(C)[C@@]1(O)C(=O)CO [Dexamethasone] | 0
32 | CC(C)C(=O)Nc1ccc([N+](=O)[O-])c(C(F)(F)F)c1 [Flutamide] | 0
33 | COc1cc2c(Oc3ccc(NC(=O)C4(C(=O)Nc5ccc(F)cc5)CC4)cc3F)ccnc2cc1OCCCN1CCOCC1 [Foretinib] | 0
34 | O=NN(CCCl)C(=O)NC1CCCCC1 [Lomustine] | 0
35 | O=C(O)CC[C@H]1CC[C@@](c2cc(F)ccc2F)(S(=O)(=O)c2ccc(Cl)cc2)CC1 [MK-0752] | 0
36 | NC1(c2ccc(-c3nc4ccn5c(=O)[nH]nc5c4cc3-c3ccccc3)cc2)CCC1 [MK-2206] | 0
37 | NC(=O)c1cccc2cn(-c3ccc([C@@H]4CCCNC4)cc3)nc12 [MK-4827] | 0
38 | N[C@@H](Cc1ccc(N(CCCl)CCCl)cc1)C(=O)O [Melphalan] | 16.5
39 | O=C(c1cc(Cc2n[nH]c(=O)c3ccccc23)ccc1F)N1CCN(C(=O)C2CC2)CC1 [Olaparib] | 0
